Laboratory results as given in publication PMC3741170, “Reconstructing the Qo Site of Plasmodium falciparum bc 1 Complex in the Yeast Enzyme” (PLoS ONE, 2013).
Several values for one entry are separate records, joined by “and”; a condition that tells them apart may be missing. Equal values may be shown once.

Key:
bovine bc 1 complex [1] = biological target: T1, bovine bc 1 complex (Bos taurus, UniProt P00157); experiment: Quinol:cytochrome c reductase activity, inhibitor titration, bovine mitochondria; format: biochemical; conditions: bovine enzyme; ratio of IC50 on concentration of monomeric bc 1 complex
T1 construct: Peter Rich; from tissue
Description: (§1) Yeast mitochondria were prepared as in [16]. Bovine mitochondrial samples were kindly given by Prof. Peter Rich (UCL, UK). Quinol:cytochrome c reductase activity measurements were performed in 10mM potassium phosphate pH 7 and 20µM equine cytochrome c at room temperature. Mitochondria were diluted to 5–30 nM bc 1 complex. Concentrations of monomeric bc 1 complex were determined from the cytochrome b α-band in dithionite-reduced optical spectra, using ε = 28.5 mM^−1.cm^−1 at 562 nm minus 575 nm. Activity was initiated by the addition of 20µM decylubiquinol. Cytochrome c reduction was recorded at 550 nm versus 540 nm over a 3-min time-course in a Beckmann DU 640 spectrophotometer. Initial rates were measured. From these rates, turnover numbers (TN) were calculated as cytochrome c reduced per bc 1 complex per second.
(§2) Cytochrome c reduction activity was measured as described above in presence of increasing concentrations of inhibitors (six to ten different concentrations). Each measurement was repeated at least twice and averaged. […] The mid-point inhibition concentrations (IC50) were determined from the titrations. As the titrations were performed using mitochondrial samples containing different concentrations of bc 1 complex (5–30 nM), the results were presented as ratio of IC50 on the concentration of bc 1 complex.

Yeast WT bc 1 complex = biological target: T2, Yeast WT bc 1 complex (Saccharomyces cerevisiae, UniProt P00163); experiment: Quinol:cytochrome c reductase activity, inhibitor titration, yeast WT mitochondria; format: biochemical; conditions: ratio of IC50 on concentration of monomeric bc 1 complex
T2 construct: Yeast mitochondria were prepared as in; endogenous in cells; host or cells: Saccharomyces cerevisiae mitochondria
Description: as §1, §2

[2] = biological target: T3, yeast bc 1 complex, Plasmodium-like Qo mutant PF1 (Saccharomyces cerevisiae, UniProt P00163, C133V/C134L/H141Y/V135P/Y136W); experiment: Quinol:cytochrome c reductase activity, inhibitor titration, Plasmodium-like mutant PF1; format: biochemical; conditions: ratio of IC50 on concentration of monomeric bc 1 complex
T3 construct: Yeast mitochondria were prepared as in; expressed in transfected cells; host or cells: Saccharomyces cerevisiae, mitochondrial transformation; mitochondria
Description: (§3) The mutants were generated by side-directed mutagenesis and mitochondrial transformation as described in [15]. They have identical nuclear and mitochondrial genomes with the exception of the mutations introduced in the cytochrome b gene.
as §1, §2

[3] = biological target: T4, yeast bc 1 complex, Plasmodium-like Qo mutant PF2 (Saccharomyces cerevisiae, UniProt P00163, C133V/C134L/H141Y/L275F/V135P/Y136W); experiment: Quinol:cytochrome c reductase activity, inhibitor titration, Plasmodium-like mutant PF2; format: biochemical; conditions: ratio of IC50 on concentration of monomeric bc 1 complex
T4 construct: Yeast mitochondria were prepared as in; expressed in transfected cells; host or cells: Saccharomyces cerevisiae, mitochondrial transformation; mitochondria
Description: as §3, §1, §2

[4] = system: yeast bc 1 complex, Plasmodium-like Qo mutant PF8; experiment: Quinol:cytochrome c reductase activity, inhibitor titration, Plasmodium-like mutant PF8; format: biochemical, Saccharomyces cerevisiae; conditions: for IC50: ratio of IC50 on concentration of monomeric bc 1 complex
Description: as §3, §1, §2

[5] = system: yeast bc 1 complex, Plasmodium-like Qo mutant PF11; experiment: Quinol:cytochrome c reductase activity, inhibitor titration, Plasmodium-like mutant PF11; format: biochemical, Saccharomyces cerevisiae; conditions: for IC50: PF11, ratio of IC50 on concentration of monomeric bc 1 complex
Description: as §3, §1, §2

[6] = system: yeast bc 1 complex, Plasmodium-like Qo mutant PF12 (PF11 + Y279S); experiment: Quinol:cytochrome c reductase activity, inhibitor titration, Plasmodium-like mutant PF12; format: biochemical, Saccharomyces cerevisiae; conditions: ratio of IC50 on concentration of monomeric bc 1 complex
Description: as §3, §1, §2

[7] = biological target: T5, yeast bc 1 complex, cytochrome b mutant Y279S (Saccharomyces cerevisiae, UniProt P00163, Y279S); experiment: Quinol:cytochrome c reductase activity, inhibitor titration, mutant Y279S; format: biochemical; conditions: ratio of IC50 on concentration of monomeric bc 1 complex
T5 construct: Yeast mitochondria were prepared as in; expressed in transfected cells; host or cells: Saccharomyces cerevisiae, mitochondrial transformation; mitochondria
Description: as §3, §1, §2

[8] = biological target: T6, yeast bc 1 complex, cytochrome b mutant L275F (Saccharomyces cerevisiae, UniProt P00163, L275F); experiment: Quinol:cytochrome c reductase activity, inhibitor titration, mutant L275F; format: biochemical; conditions: for IC50: L275F, ratio of IC50 on concentration of monomeric bc 1 complex
T6 construct: Yeast mitochondria were prepared as in; expressed in transfected cells; host or cells: Saccharomyces cerevisiae, mitochondrial transformation; mitochondria
Description: as §3, §1, §2

[9] = system: P. falciparum bc 1 complex; conditions: P. falciparum enzyme; not expressed as molar ratio; cited from earlier work
[10] = biological target: T7, yeast bc 1 complex, cytochrome b mutant F278A (Saccharomyces cerevisiae, UniProt P00163, F278A); experiment: Quinol:cytochrome c reductase activity, inhibitor titration, mutant F278A; format: biochemical; conditions: for IC50 increase (resistance) vs WT: F278A vs yeast WT; for IC50: F278A, ratio of IC50 on concentration of monomeric bc 1 complex
T7 construct: Yeast mitochondria were prepared as in; expressed in transfected cells; host or cells: Saccharomyces cerevisiae, mitochondrial transformation; mitochondria
Description: as §3, §1, §2

[11] = biological target: T8, yeast bc 1 complex, cytochrome b mutant M295L (Saccharomyces cerevisiae, UniProt P00163, M295L); experiment: Quinol:cytochrome c reductase activity, inhibitor titration, mutant M295L; format: biochemical; conditions: for IC50: M295L, ratio of IC50 on concentration of monomeric bc 1 complex
T8 construct: Yeast mitochondria were prepared as in; expressed in transfected cells; host or cells: Saccharomyces cerevisiae, mitochondrial transformation; mitochondria
Description: as §3, §1, §2

[12] = biological target: yeast bc 1 complex, human-like Qo mutant HSa; experiment: Quinol:cytochrome c reductase activity, inhibitor titration, human-like mutant HSa; format: biochemical, Saccharomyces cerevisiae; conditions: ratio of IC50 on concentration of monomeric bc 1 complex
Description: as §3, §1
Cytochrome c reduction activity was measured as described above in presence of increasing concentrations of inhibitors (six to ten different concentrations). Each measurement was repeated at least twice and averaged. […] The mid-point inhibition concentrations (IC50) were determined from the titrations. […]

[13] = biological target: T9, yeast bc 1 complex, human-like Qo mutant HSb (Saccharomyces cerevisiae, UniProt P00163, F278A/L275F/M295L); experiment: Quinol:cytochrome c reductase activity, inhibitor titration, human-like mutant HSb; format: biochemical; conditions: for IC50: HSb, ratio of IC50 on concentration of monomeric bc 1 complex
T9 construct: Yeast mitochondria were prepared as in; expressed in transfected cells; host or cells: Saccharomyces cerevisiae, mitochondrial transformation; mitochondria
Description: as §3, §1, §2

[14] = biological target: T10, yeast bc 1 complex, human-like Qo mutant HSc (Saccharomyces cerevisiae, UniProt P00163, C133V/C134L/F278A/H141F/L275F/M295L/V135P/Y136W); experiment: Quinol:cytochrome c reductase activity, inhibitor titration, human-like mutant HSc; format: biochemical; conditions: for IC50: HSc, ratio of IC50 on concentration of monomeric bc 1 complex
T10 construct: Yeast mitochondria were prepared as in; expressed in transfected cells; host or cells: Saccharomyces cerevisiae, mitochondrial transformation; mitochondria
Description: as §3, §1, §2

[15] = system: yeast bc 1 complex, PF11 with deletion Δ158–161; experiment: Quinol:cytochrome c reductase activity, PF11 with deletion Δ158–161; format: biochemical, Saccharomyces cerevisiae; conditions: deletion introduced in PF11; not shown
Description: as §1, §2

[16] = biological target: T6, yeast bc 1 complex, cytochrome b mutant L275F; conditions: vs yeast WT; cited from earlier work
[17] = system: Rhodabacter capsulatus bc 1 complex; conditions: bacterial complex, phenylalanine naturally at position 275; cited from earlier work
[18] = system: Rhodabacter capsulatus bc 1 complex, mutations I281M and R283K (yeast numbering); set-up: method as in PMID 15917236; conditions: bacterial complex with I281M and R283K; cited from earlier work
bovine bc 1 complex [19] = experiment: Quinol:cytochrome c reductase activity, inhibitor titration, bovine mitochondria; format: biochemical; conditions: bovine vs yeast WT
Description: as §1, §2

P. falciparum = conditions: read-out: IC50, P. falciparum proliferation; cited from earlier work

Compound | IC50 (bovine bc 1 complex [1]) [molar ratio] | IC50 (Yeast WT bc 1 complex) [molar ratio] | IC50 [2] [molar ratio] | IC50 [3] [molar ratio] | IC50 [4] [molar ratio] | IC50 [5] [molar ratio] | IC50 [6] [molar ratio] | IC50 [7] [molar ratio] | IC50 [8] [molar ratio] | IC50 [9] | IC50 increase (resistance) vs WT [10] [fold] | IC50 [10] [molar ratio] | IC50 [11] [molar ratio] | IC50 [12] [molar ratio] | IC50 [13] [molar ratio] | IC50 [14] [molar ratio] | other results
CCOC(=O)c1c[nH]c2cc(Oc3ccc(OC(F)(F)F)cc3)ccc2c1=O [RCQ06] | 40 | >500 | >500 | 10 | 40 | 25 | >500 | >500 | 10 | ~1.3 nM and 1.3 nM | – | – | – | – | – | – | increase in sensitivity vs WT ([8]; L275F vs yeast WT): over 50 fold
O=C1C(O)=C([C@H]2CC[C@H](c3ccc(Cl)cc3)CC2)C(=O)c2ccccc21 [atovaquone] | 75 | 4 | 2 | 10 | 16 | 3 | >850 | >850 | 150 | ~3 nM and 3 nM | 9 | 35 | 10 | 200 | 170 | 60 | IC50 increase (resistance) vs WT ([8]; L275F vs yeast WT): 35 fold; IC50 increase (resistance) vs WT ([11]; M295L vs yeast WT): 2.5 fold; resistance vs WT enzyme ([14]; HSc vs yeast WT): 15 fold; effect of deletion Δ158–161 on sensitivity [15]: little effect; decrease in sensitivity on introducing L275F in yeast bc 1 complex [16]: over 20 fold; IC50 [17]: ~30 nM; IC50 [18]: 10 nM
CO/C=C(/C(=O)OC)c1ccccc1Oc1cc(Oc2ccccc2C#N)ncn1 [azoxystrobin] | 180 | 20 | 5 | 16 | 220 | 40 | 30 | 60 | 30 | – | 6 | 120 | 45 | 130 | 160 | 140 | resistance of the mammalian enzyme compared to yeast enzyme (bovine bc 1 complex [19]): 9 fold; increase in resistance caused by modifications of residues 283 to 299 [4]: 10 fold; lowering of resistance by changes in position 133 to 141 ([5]; PF11 vs PF8): 5 fold; resistance conferred by triple mutation ([13]; HSb vs yeast WT): 8 fold; IC50 (P. falciparum): 15 nM
antimycin | – | – | – | – | – | – | – | – | – | – | – | – | – | – | – | – | sensitivity compared with that of the WT control ([5]; PF11 vs WT, data not shown): No or very little difference; sensitivity compared with that of the WT control ([14]; HSc vs WT, data not shown): No or very little difference
